Source: ChEMBL document CHEMBL4602647, “Protective effects of 10,11-dihydro-5H-dibenzo[b,f]azepine hydroxamates on vascular cognitive impairment” (Eur J Med Chem, 2020)
Activity calls are given as the source filed them. The calls are words filed in the database; no cut-off is given here.

Experiments:
SH-SY5Y [1] = assay: Neuroprotective activity against OGD-induced hypoxic injury in human SH-SY5Y cells assessed as LDH release at 1 nM to 10 uM incubated under oxygen/glucose deprivation-induced hypoxic medium by LDH assay; format: functional, cell-based
Histone deacetylase 2 = Histone deacetylase 2 (Homo sapiens, UniProt Q92769); assay: Inhibition of recombinant human C-terminal GST-tagged HDAC2 (1 to 488 residues) expressed in baculovirus infected sf21 cells using RHK-K(Ac)-AMC as substrate after 60 mins by fluorimetry assay
Chain of Histone deacetylase 2 (Q92769 whole entry, the tested form may be a part): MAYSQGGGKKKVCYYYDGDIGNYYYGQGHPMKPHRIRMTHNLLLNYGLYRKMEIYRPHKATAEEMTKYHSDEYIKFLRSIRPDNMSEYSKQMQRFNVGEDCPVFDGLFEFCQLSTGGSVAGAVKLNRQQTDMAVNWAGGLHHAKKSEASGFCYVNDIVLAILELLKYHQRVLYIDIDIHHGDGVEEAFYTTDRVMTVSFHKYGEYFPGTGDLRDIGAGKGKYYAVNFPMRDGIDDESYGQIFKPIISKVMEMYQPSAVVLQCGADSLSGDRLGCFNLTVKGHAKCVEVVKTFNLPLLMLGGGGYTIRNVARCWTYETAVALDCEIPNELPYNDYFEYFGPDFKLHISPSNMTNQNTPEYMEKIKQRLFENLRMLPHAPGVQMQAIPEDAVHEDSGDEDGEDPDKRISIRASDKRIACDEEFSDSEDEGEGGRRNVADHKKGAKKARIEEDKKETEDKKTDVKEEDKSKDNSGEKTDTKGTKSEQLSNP

Histone deacetylase 8 = target: T1, Histone deacetylase 8 (Homo sapiens, UniProt Q9BY41); assay: Inhibition of recombinant C-terminal His-tagged and N-terminal Streptavidin2-tagged human HDAC8 (1 to 377 residues) expressed in baculovirus infected insect cells using RHK-K(Ac)-AMC as substrate after 60 mins by fluorescence assay
T1 sequence (Q9BY41 whole entry): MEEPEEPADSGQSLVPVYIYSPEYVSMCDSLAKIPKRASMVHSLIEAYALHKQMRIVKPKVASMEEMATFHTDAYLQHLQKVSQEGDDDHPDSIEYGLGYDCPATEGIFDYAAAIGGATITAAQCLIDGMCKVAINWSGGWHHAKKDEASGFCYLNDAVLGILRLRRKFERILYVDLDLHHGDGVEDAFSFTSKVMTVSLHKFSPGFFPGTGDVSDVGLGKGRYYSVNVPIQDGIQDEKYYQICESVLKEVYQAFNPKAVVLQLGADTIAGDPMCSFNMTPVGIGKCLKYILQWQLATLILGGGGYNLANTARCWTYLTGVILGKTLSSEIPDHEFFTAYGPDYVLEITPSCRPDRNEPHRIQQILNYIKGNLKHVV

[2] = target: T2, Protein deacetylase HDAC6 (Homo sapiens, UniProt Q9UBN7); assay: Inhibition of recombinant human N-terminal GST-tagged HDAC6 (1 to 1215 residues) expressed in baculovirus infected insect cells using RHK-K(Ac)-AMC as substrate after 90 mins by fluorimetry analysis
T2 sequence (Q9UBN7 whole entry): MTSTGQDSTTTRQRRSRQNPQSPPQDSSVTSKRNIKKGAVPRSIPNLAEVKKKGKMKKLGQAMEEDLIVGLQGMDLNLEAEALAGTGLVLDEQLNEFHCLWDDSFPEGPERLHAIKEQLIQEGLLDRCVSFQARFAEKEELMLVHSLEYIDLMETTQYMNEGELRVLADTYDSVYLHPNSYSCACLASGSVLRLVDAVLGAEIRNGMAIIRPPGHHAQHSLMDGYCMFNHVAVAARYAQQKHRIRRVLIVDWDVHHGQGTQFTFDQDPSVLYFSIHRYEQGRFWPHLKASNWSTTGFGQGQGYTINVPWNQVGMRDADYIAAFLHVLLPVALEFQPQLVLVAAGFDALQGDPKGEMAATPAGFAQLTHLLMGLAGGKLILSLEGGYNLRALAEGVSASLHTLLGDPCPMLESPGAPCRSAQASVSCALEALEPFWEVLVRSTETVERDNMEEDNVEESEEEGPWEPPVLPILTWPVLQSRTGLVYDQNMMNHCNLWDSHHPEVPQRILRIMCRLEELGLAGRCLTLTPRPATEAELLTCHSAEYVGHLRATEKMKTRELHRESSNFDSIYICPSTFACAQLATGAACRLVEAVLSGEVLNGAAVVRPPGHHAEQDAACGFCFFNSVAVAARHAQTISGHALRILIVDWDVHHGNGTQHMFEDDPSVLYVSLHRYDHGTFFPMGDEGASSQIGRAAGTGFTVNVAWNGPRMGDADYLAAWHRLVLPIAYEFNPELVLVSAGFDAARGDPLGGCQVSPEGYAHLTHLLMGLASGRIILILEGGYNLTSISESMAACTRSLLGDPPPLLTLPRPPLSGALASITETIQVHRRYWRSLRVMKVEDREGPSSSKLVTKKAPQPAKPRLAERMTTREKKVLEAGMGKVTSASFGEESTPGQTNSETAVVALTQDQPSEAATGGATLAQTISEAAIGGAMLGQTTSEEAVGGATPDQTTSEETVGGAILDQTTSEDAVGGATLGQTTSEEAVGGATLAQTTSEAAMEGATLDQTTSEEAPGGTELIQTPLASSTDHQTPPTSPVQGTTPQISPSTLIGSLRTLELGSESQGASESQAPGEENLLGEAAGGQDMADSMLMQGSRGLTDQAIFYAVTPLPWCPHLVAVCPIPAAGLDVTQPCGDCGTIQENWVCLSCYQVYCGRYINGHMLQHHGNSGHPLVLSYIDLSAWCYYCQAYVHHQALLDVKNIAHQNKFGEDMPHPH

Histone deacetylase 1 = Histone deacetylase 1 (Homo sapiens, UniProt Q13547); assay: Inhibition of recombinant full length human C-terminal FLAG/His-tagged HDAC1 (1 to 482 residues) expressed in baculovirus infected Sf21 cells using RHK-K(Ac)-AMC as substrate measured after 60 mins by fluorimetric assay
Chain of Histone deacetylase 1 (Q13547 whole entry, the tested form may be a part): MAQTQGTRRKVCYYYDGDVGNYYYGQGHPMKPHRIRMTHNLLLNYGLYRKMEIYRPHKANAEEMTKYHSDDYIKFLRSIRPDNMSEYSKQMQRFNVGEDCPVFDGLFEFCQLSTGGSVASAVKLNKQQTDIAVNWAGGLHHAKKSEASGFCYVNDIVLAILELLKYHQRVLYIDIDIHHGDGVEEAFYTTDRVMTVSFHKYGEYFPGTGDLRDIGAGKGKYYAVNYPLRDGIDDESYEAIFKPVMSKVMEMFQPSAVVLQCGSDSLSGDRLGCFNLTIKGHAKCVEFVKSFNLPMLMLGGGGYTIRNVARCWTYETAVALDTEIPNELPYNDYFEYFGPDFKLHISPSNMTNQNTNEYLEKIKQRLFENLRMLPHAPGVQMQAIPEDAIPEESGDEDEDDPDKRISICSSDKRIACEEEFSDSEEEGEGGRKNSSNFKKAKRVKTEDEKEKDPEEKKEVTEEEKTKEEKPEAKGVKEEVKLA

SH-SY5Y [3] = assay: Neuroprotective activity against OGD-induced hypoxic injury in human SH-SY5Y cells assessed as LDH release at 10 uM incubated under oxygen/glucose deprivation-induced hypoxic medium by LDH assay (reference value: 27.47 +/- 3.23 %); format: functional
Mus musculus [4] = assay: (§1) Anti-vascular cognitive impairment activity against bilateral common carotid artery occlusion-induced vascular dementia C57BL/6J mouse model assessed as improvement in short-term non-spatial working memory by measuring increase in novel object recognition at 25 mg/kg, ip administered post surgery measured after 1 month by novel object recognition test; format: functional, organism-based
Mus musculus [5] = assay: as §1, with “3 months” for “1 month”; format: functional, organism-based
Mus musculus [6] = assay: (§2) Anti-vascular cognitive impairment activity against bilateral common carotid artery occlusion-induced vascular dementia C57BL/6J mouse model assessed as reversal of hippocampal atrophy by measuring increase in ratio of size of hippocampus to lateral ventricle at 25 mg/kg, ip administered post surgery measured after 3 months by 7T-MRI analysis; format: functional, organism-based
Mus musculus [7] = assay: (§3) Anti-vascular cognitive impairment activity against bilateral common carotid artery occlusion-induced vascular dementia C57BL/6J mouse model assessed as ratio of cerebral blood flow in right parietal area at 25 mg/kg, ip administered post surgery measured after 3 months (reference value: 0.761 +/- 0.037); format: functional
Mus musculus [8] = assay: as §3, with “left” for “right”, “months(reference” for “months (reference”, “0.792” for “0.761”, “0.029)” for “0.037)”; format: functional
Mus musculus [9] = assay: Upregulation of acetylated H3K14 protein expression in hippocampus of bilateral common carotid artery occlusion-induced vascular dementia C57BL/6J mouse model at 25 mg/kg, ip measured after 3 months by Western blot analysis; format: functional, organism-based
Mus musculus [10] = assay: as §2, with “hippocampal volume” for “ratio of size of hippocampus to lateral ventricle”; format: functional, organism-based
SH-SY5Y [11] = assay: Neuroprotective activity against OGD-induced hypoxic injury in human SH-SY5Y cells assessed as LDH release at 5 uM incubated under oxygen/glucose deprivation-induced hypoxic medium by LDH assay (reference value: 27.47 +/- 3.23 %); format: functional
SH-SY5Y [12] = assay: Neuroprotective activity against OGD-induced hypoxic injury in human SH-SY5Y cells assessed as LDH release at 1 uM incubated under oxygen/glucose deprivation-induced hypoxic medium by LDH assay (reference value: 27.47 +/- 3.23 %); format: functional

Row | SMILES | Activity (SH-SY5Y [1]) | IC50 (Histone deacetylase 2; read-out: IC50) [nM] | IC50 (Histone deacetylase 8) [nM] | IC50 [2] [nM] | IC50 (Histone deacetylase 1; read-out: IC50) [nM] | Activity (SH-SY5Y [3]) [%] | IC50 (Histone deacetylase 2; sf21) | Activity (SH-SY5Y [11]) [%] | further results
1 | CN(C)CCCN1c2ccccc2CCc2ccc(Cl)cc21 | inactive | – | – | – | – | – | – | – | –
2 | O=C(NO)c1ccc(C(=O)NCCCN2c3ccccc3CCc3ccc(Cl)cc32)cc1 | – | 8620 | 1780 | 448 | 7280 | 30.74 | – | – | –
3 | O=C(CCCCCCC(=O)Nc1ccccc1)NO [VORINOSTAT] | – | – | – | – | – | – | – | – | Activity (Mus musculus [4]): Active; Activity (Mus musculus [5]): inactive; Activity (Mus musculus [6]): inactive; Ratio (Mus musculus [7]): 0.83; Ratio (Mus musculus [8]): 0.878; Activity (Mus musculus [9]): inactive; Activity (Mus musculus [10]): inactive
4 | O=C(CCCCC(=O)NCCCN1c2ccccc2CCc2ccc(Cl)cc21)NO | inactive | 9620 | 3090 | 2070 | 6800 | – | – | – | –
5 | O=C(NO)c1ccc(CNCCCN2c3ccccc3CCc3ccc(Cl)cc32)cc1 | inactive | – | 1510 | 2610 | – | – | Not Active | – | IC50 (Histone deacetylase 1; sf21): Not Active
6 | O=C(/C=C/c1cccc(S(=O)(=O)NCCCN2c3ccccc3CCc3ccc(Cl)cc32)c1)NO | – | 8480 | 2160 | 821 | 6050 | – | – | – | –
7 | O=C(CCCCCCCC(=O)NCCCN1c2ccccc2CCc2ccc(Cl)cc21)NO | – | 2740 | 1070 | 144 | 3400 | 76.55 | – | 100.96 | –
8 | O=C(CCCCCC(=O)NCCCN1c2ccccc2CCc2ccc(Cl)cc21)NO | – | 3960 | 345 | 61.6 | 2140 | 92.47 | – | 86.54 | –
9 | O=C(CCCCCCC(=O)NCCCN1c2ccccc2CCc2ccc(Cl)cc21)NO | – | – | 2330 | 658 | – | 97.21 | Not Active | 74.3 | IC50 (Histone deacetylase 1; sf21): Not Active; Activity (SH-SY5Y [12]): 43.16%
10 | O=C(CCCC(=O)NCCCN1c2ccccc2CCc2ccc(Cl)cc21)NO | inactive | 5960 | 1850 | 1440 | 5100 | – | – | – | –
11 | O=C(CCCCCCCCC(=O)NCCCN1c2ccccc2CCc2ccc(Cl)cc21)NO | – | 3030 | 864 | 142 | 5450 | 65.87 | – | 84.35 | –
12 | O=C(/C=C/c1ccc(S(=O)(=O)NCCCN2c3ccccc3CCc3ccc(Cl)cc32)cc1)NO | – | – | 874 | 762 | > 10000 | – | Not Active | – | –
13 | O=C(CCC(=O)NCCCN1c2ccccc2CCc2ccc(Cl)cc21)NO | inactive | – | > 10000 | > 10000 | – | – | Not Active | – | IC50 (Histone deacetylase 1; sf21): Not Active
